From patent publication US20240294498A1, “FACTOR XIIA INHIBITORS” (Lunac Therapeutics Ltd, priority 2021, published 2024)

Key:
Assay type in all cases: biochemical
FXIIa = target: T1, FXIIa (Homo sapiens, UniProt P00748); experiment: Determination of Factor XIIa inhibition (chromogenic substrate S-2302); settings: human FXIIa alpha, Ki category
T1 construct: FXIIa alpha
T1 sequence (P00748 373-615 limits assumed): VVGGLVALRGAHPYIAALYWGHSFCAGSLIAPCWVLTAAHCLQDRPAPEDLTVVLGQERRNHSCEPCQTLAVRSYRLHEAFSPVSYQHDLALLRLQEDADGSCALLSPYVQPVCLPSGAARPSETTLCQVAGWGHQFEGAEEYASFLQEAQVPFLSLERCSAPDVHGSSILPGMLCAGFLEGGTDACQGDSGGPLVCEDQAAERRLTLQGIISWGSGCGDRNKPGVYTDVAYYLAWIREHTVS
T1 sequence (P00748 20-372 partner limits assumed): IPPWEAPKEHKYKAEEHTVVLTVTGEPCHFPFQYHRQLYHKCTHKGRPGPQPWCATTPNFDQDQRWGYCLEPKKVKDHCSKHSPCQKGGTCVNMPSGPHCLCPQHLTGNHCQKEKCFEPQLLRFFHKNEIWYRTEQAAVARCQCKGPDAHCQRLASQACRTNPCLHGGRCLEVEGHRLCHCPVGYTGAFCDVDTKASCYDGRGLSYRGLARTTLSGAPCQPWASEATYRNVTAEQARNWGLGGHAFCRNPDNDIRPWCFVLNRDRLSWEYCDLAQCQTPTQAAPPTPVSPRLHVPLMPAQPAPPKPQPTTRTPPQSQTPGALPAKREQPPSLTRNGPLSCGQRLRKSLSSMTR
In short: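 Compound preincubated with 10 nM FXIIa for 10 min at 37° C in 50 mM Tris, 137 mM NaCl, pH 7.4, 5% DMSO, top concentration 500 μM; S-2302 added at Km. pNA release followed at 405 nm for 3 h; IC50 from initial rates, converted to Ki via Ki = IC50/(1+[S]/Km).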

FXa = FXa (Homo sapiens, UniProt P00742); experiment: Determination of selectivity: FXa inhibition (chromogenic substrate S2765); settings: fold selectivity for FXIIa over FXa (human); category
In short: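 FXa (5 nM) preincubated with increasing compound (top 500 μM) for 10 mins at 37° C in 50 mM Tris, 137 mM NaCl pH 7.4, 5% DMSO, then S2765 added at its KM. Absorbance at 405 nm followed kinetically for 3 hours; IC50 from initial rates, converted to Ki by Cheng-Prusoff.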

thrombin = target: T2, thrombin (Homo sapiens, UniProt P00734); experiment: Determination of selectivity: thrombin inhibition (chromogenic substrate GPR); settings: fold selectivity for FXIIa over thrombin (human); category
T2 construct: FXa (5 nM) and thrombin (5 nM)
In short: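 Thrombin (5 nM) preincubated with increasing compound concentrations (top 500 μM, 5% DMSO) 10 min at 37 °C in 50 mM Tris, 137 mM NaCl pH 7.4, then GPR chromogenic substrate at its KM. pNA release read kinetically at 405 nm for 3 h at 37 °C. IC50 from initial rates, converted to Ki via Cheng–Prusoff.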

FXa, sequence (P00742 235-488 limits assumed): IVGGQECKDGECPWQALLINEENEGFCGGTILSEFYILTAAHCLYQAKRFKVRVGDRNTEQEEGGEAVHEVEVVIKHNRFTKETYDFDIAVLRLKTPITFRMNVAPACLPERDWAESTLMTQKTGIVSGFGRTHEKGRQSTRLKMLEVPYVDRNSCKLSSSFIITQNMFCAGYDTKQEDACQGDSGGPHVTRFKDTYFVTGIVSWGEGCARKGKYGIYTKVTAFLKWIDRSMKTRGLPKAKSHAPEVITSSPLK
FXa, sequence (P00742 41-179 partner limits assumed): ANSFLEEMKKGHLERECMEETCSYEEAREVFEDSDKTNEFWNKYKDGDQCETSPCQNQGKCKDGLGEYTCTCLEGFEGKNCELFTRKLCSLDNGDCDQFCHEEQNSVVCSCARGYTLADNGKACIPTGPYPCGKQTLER

| Compound | Ki (FXIIa) [nM] | FXa (human)/FXIIa alpha (human) (FXa) | Thrombin (human)/FXIIa alpha (human) (thrombin) |
| --- | --- | --- | --- |
| Cn1nnc2cc(CNC(=O)[C@@H]3C/C(=C/C4=CCC5(CC4)CC5)CN3C(=O)[C@@H]3NCCC[C@@H]3C(=O)N3CCCC3)ccc21 [Example M05992, (S,Z)-N-((1-methyl-1H-benzo[d][1,2,3]triazol-5-yl)methyl)-1-((2R,3S)-3-(pyrrolidine-1-carbonyl)piperidine-2-carbonyl)-4-(spiro[2.5]oct-5-en-6-ylmethylene)pyrrolidine-2-carboxamide] | 200 to 800 | ∘∘∘ | +++ (fold selectivity values greater than 100) |
| Cn1nnc2cc(CNC(=O)[C@@H]3C[C@@H](CC4CCC5(CC4)CC5)CN3C(=O)[C@@H]3NCCC[C@@H]3C(=O)N3CCCC3)ccc21 [Compound M06003] | 200 to 800 | ∘∘∘ | +++ (fold selectivity values greater than 100) |
| Cc1ccc(C[C@@H]2C[C@@H](C(=O)NCc3ccc4c(cnn4C)c3)N(C(=O)[C@@H]3NCCC[C@@H]3C(=O)N3C4CCC3COC4)C2)cc1 [Example M05770, (2S,4R)-1-((2R,3S)-3-(3-oxa-8-azabicyclo[3.2.1]octane-8-carbonyl)piperidine-2-carbonyl)-N-((1-methyl-1H-indazol-5-yl)methyl)-4-(4-methylbenzyl)pyrrolidine-2-carboxamide] | 200 to 800 | ∘∘∘ | +++ (fold selectivity values greater than 100) |
| Cc1ccc(C[C@@H]2C[C@@H](C(=O)NCc3cc4cncc(F)c4[nH]3)N(C(=O)[C@@H]3NCCC[C@@H]3C(=O)N3CCCC3)C2)cc1 [Example M05712, (2S,4R)-N-((7-fluoro-1H-pyrrolo[3,2-c]pyridin-2-yl)methyl)-4-(4-methylbenzyl)-1-((2R,3S)-3-(pyrrolidine-1-carbonyl)piperidine-2-carbonyl)pyrrolidine-2-carboxamide] | 200 to 800 | ∘∘∘ | +++ (fold selectivity values greater than 100) |
| COc1ccc(C[C@@H]2C[C@@H](C(=O)NCc3cc4cnccc4[nH]3)N(C(=O)[C@@H]3NCCC[C@@H]3C(=O)N3CCCC3)C2)cc1 [Example M00466, (2S,4R)-N-((1H-pyrrolo[3,2-c]pyridin-2-yl)methyl)-4-(4-mthoxybenzyl)-1-((2R,3S)-3-(pyrrolidine-1-carbonyl)piperidine-2-carbonyl)pyrrolidine-2-carboxamide] | < 200 | ∘∘∘ | +++ (fold selectivity values greater than 100) |
| Cc1nnc2cc(CNC(=O)[C@@H]3C[C@@H](Cc4ccc(C5CC5)cc4)CN3C(=O)[C@@H]3NCCC[C@@H]3C(=O)N3CCCC3)ccn12 [Example M06006, (2S,4R)-4-(4-cyclopropylbenzyl)-N-((3-methyl-[1,2,4]triazolo[4,3-a]pyridin-7-yl)methyl)-1-((2R,3S)-3-(pyrrolidine-1-carbonyl)piperidine-2-carbonyl)pyrrolidine-2-carboxamide] | 200 to 800 | ∘∘∘ | +++ (fold selectivity values greater than 100) |
